System: NK92 cells
Test: Metabolic incorporation of azido sialic acid in NK92 cells, detected with FITC-Stau by confocal laser microscope
Assay type: cell-based
Details: NK92 cells cultured with 100 μM 9N3-SA for 24-48 hours; FITC-Stau 100 μM, 37° C., 2-4 hours; compared with cells not modified
Protocol: NK92 cells normally cultured are distributed into a 24-well plate and then cultured in a NK92 cell medium containing 9N3-SA with a final concentration of 100 μM for 24-48 hours. The NK92 cells are washed by PBS for 3 times, and the NK92 cell medium containing 9N3-SA is then replaced by a normal NK92 medium to obtain NK92 cells modified with the azide groups. In order to verify that the NK92 cells have been modified with the azide groups, in this embodiment, Fluorescein-Stau (FITC-Stau) (as shown in FIG. 3), a ligand molecule connected to fluorescein and able to orthogonally react with the azide groups, is synthesized. The FITC-Stau is added into a medium of the NK92 cell modified with the azide groups with a final concentration of 100 μM, incubated at 37° C. for 2-4 hours, and washed with PBS for 3 times, and fluorescence on the cell surface is then observed by a confocal laser microscope.

SMILES: COC(=O)[C@@]1(O)C[C@@H](O)[C@@H](NC(C)=O)C([C@H](O)[C@H](O)CN=[N+]=[N-])O1 (stereo partly shown) [9N3-SA]
- fluorescence on the cell surface after FITC-Stau labeling: strong fluorescence signal

Reference: patent publication US20220380721A1, “METHOD FOR COUPLING ANTIBODY TO SURFACE OF CELL AND METHOD FOR APPLYING CELL COUPLED WITH THE ANTIBODY” (Xiamen Nuokangde Biological Technology Co., Ltd., priority 2019, published 2022)
